# Results reported in patent publication US20120309750A1, “5-MEMBERED HETEROCYCLE DERIVATIVES AND MANUFACTURING PROCESS THEREOF” (ILDONG PHARM CO., LTD., priority 2010, published 2012).
# Assays:
# [1] = target: yeast HSP90 (Saccharomyces cerevisiae, UniProt P02829); experiment: Hsp90 ATPase assay (malachite green); format: biochemical
# Procedure: (§1) For present invention, the ATPase activity of yeast HSP90 was measured using malachite green assay. Formula I compounds for primary antitumoral activity were treated in human colorectal cancer cells (HCT116) showing increased expression levels of HSP90 client protein and cotoxicity IC50 values was measured as a result.
# [2] = test system: human colorectal cancer cells (HCT116); experiment: Growth inhibition assay (cytotoxicity) in HCT116; format: cell-based; conditions: HCT-116
# Procedure: as §1
# Sequence of yeast HSP90 (P02829 whole entry): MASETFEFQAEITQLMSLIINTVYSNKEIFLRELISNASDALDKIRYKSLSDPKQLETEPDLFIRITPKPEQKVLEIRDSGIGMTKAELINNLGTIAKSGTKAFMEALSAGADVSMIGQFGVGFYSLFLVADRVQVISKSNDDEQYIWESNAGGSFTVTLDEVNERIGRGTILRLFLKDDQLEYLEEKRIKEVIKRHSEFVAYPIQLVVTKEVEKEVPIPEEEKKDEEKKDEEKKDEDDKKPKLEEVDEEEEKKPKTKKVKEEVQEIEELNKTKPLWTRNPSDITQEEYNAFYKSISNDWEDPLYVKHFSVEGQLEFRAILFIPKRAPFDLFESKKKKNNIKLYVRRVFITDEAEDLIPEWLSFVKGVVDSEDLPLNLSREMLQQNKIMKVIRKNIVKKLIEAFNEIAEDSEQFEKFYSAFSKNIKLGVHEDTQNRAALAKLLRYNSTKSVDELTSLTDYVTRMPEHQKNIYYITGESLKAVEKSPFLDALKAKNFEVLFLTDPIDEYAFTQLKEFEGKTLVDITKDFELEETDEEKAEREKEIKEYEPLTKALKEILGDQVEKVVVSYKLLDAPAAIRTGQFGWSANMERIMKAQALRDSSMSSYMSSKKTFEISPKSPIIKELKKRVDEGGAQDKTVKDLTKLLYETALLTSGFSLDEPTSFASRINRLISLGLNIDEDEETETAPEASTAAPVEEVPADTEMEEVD
SMILES,IC50 [1] [nM],IC50 [2] [nM]
"CCNC(=O)c1noc(-c2cc(C(C)C)c(O)cc2O)c1-c1ncon1 [Compound I-66, 5-(2,4-Dihydroxy-5-isopropylphenyl)-N-ethyl-4-(1,2,4-oxadiazol-3-yl)isoxazole-3-carboxamide]",500 to 1000,< 500
"CCNC(=O)c1noc(-c2cc(C(C)C)c(O)cc2O)c1C1CC(C(=O)OCC)=NO1 (centres unmarked) [Compound I-7, Ethyl 5-(5-(2,4-dihydroxy-5-isopropylphenyl)-3-(ethylcarbamoyl)isoxazol-4-yl)-4,5-dihydroisoxazole-3-carboxylate]",500 to 1000,500 to 1000
"CCNC(=O)c1noc(-c2cc(C(C)C)c(O)cc2O)c1-c1cc(COCC(=O)OC)no1 [Compound I-19, Methyl 2-((5-(2,4-dihydroxy-5-isopropylphenyl)-3-(ethylcarbamoyl)-4,5′-biisoxazol-3′-yl)methoxy)acetate]",< 500,< 500
"CCNC(=O)c1noc(-c2cc(C(C)C)c(O)cc2O)c1-c1cc(CF)no1 [Compound I-28, 5-(2,4-Dihydroxy-5-isopropylphenyl)-N-ethyl-3′-(fluoromethyl)-4,5′-biisoxazole-3-carboxamide]",< 500,< 500
"CCNC(=O)c1noc(-c2cc(C(C)C)c(O)cc2O)c1-c1cc(CO)no1 [Compound I-17, 5-(2,4-Dihydroxy-5-isopropylphenyl)-N-ethyl-3′-(hydroxymethyl)-4,5′-biisoxazole-3-carboxamide]",< 500,< 500
"CCNC(=O)c1noc(-c2cc(C(C)C)c(O)cc2O)c1-c1noc(CN2CCCC2)n1 [Compound I-95, 5-(2,4-Dihydroxy-5-isopropylphenyl)-N-ethyl-4-(5-(pyrrolidin-1-ylmethyl)-1,2,4-oxadiazol-3-yl)isoxazole-3-carboxamide]",500 to 1000,< 500
"CCNC(=O)c1noc(-c2cc(C(C)C)c(O)cc2O)c1-c1cc(CN2CCCCC2)no1 [Compound I-38, 5-(2,4-Dihydroxy-5-isopropylphenyl)-N-ethyl-3′-(piperidin-1-ylmethyl)-4,5′-biisoxazole-3-carboxamide]",500 to 1000,< 500
"CCNC(=O)c1noc(-c2cc(C(C)C)c(O)cc2O)c1-c1noc(CN2CCOCC2)n1 [Compound I-92, 5-(2,4-Dihydroxy-5-isopropylphenyl)-N-ethyl-4-(5-(morpholinomethyl)-1,2,4-oxadiazol-3-yl)isoxazole-3-carboxamide]",500 to 1000,< 500
"CCNC(=O)c1noc(-c2cc(C(C)C)c(O)cc2O)c1-c1noc(-c2cccs2)n1 [Compound I-77, 5-(2,4-Dihydroxy-5-isopropylphenyl)-N-ethyl-4-(5-(thiophen-2-yl)-1,2,4-oxadiazol-3-yl)isoxazole-3-carboxamide]",500 to 1000,< 500
"CCNC(=O)c1noc(-c2cc(C(C)C)c(O)cc2O)c1-c1noc(N(C)C)n1 [Compound I-72, 5-(2,4-Dihydroxy-5-isopropylphenyl)-4-(5-(dimethylamino)-1,2,4-oxadiazol-3-yl)-N-ethylisoxazole-3-carboxamide]",< 500,< 500
"CCNC(=O)c1noc(-c2cc(C(C)C)c(O)cc2O)c1-c1noc(C(=O)OC)n1 [Compound I-58, Methyl 3-(5-(2,4-dihydroxy-5-isopropylphenyl)-3-(ethylcarbamoyl)isoxazol-4-yl)-1,2,4-oxadiazole-5-carboxylate]",500 to 1000,> 1000
"CCNC(=O)c1noc(-c2cc(C(C)C)c(O)cc2O)c1-c1noc(C(Cl)(Cl)Cl)n1 [Compound I-70, 5-(2,4-Dihydroxy-5-isopropylphenyl)-N-ethyl-4-(5-(trichloromethyl)-1,2,4-oxadiazol-3-yl)isoxazole-3-carboxamide]",500 to 1000,500 to 1000
"CCNC(=O)c1noc(-c2cc(C(C)C)c(O)cc2O)c1-c1ccc(CN2CCOCC2)s1 [Compound I-1, 5-(2,4-Dihydroxy-5-isopropylphenyl)-N-ethyl-4-(5-(morpholinomethyl)thiophen-2-yl)isoxazole-3-carboxamide]",< 500,< 500
